How the values were obtained:
[1] = Long-term stability of nicotinamide ribose solution after pH adjustment with hydrochloric acid; format: physicochemical; conditions: storage temperature 0-4° C., storage time 45 days
Text: (§1) The results of various parameters in the preparation of the intermediate product nicotinamide ribose solution are shown in Table 1 to Table 5.

[2] = Long-term stability of nicotinamide ribose solution after pH adjustment with sodium bicarbonate; format: physicochemical; conditions: 2-4° C., storage time 45 days
Text: as §1

Substance: nicotinamide ribose [nicotinamide ribose solution]
- Stability (degradation) ([1]; pH 4 (hydrochloric acid)): 1.3%
- Stability (degradation) ([1]; pH 5 (hydrochloric acid)): 2.1%
- Stability (degradation) ([2]; pH 4 (sodium bicarbonate)): 2.4%
- Stability (degradation) ([2]; pH 5 (sodium bicarbonate)): 3.7%
